Each molecule was assayed against T1, MAGL (recombinant wild-type) (Homo sapiens, UniProt Q99685) (assay: 4-NPA assay: MAGL inhibitory activity by hydrolysis of 4-nitrophenylacetate, absorbance at 405 nm). Settings: 4-NPA assay (values without footnote [a]).
T1 sequence (Q99685 1-303): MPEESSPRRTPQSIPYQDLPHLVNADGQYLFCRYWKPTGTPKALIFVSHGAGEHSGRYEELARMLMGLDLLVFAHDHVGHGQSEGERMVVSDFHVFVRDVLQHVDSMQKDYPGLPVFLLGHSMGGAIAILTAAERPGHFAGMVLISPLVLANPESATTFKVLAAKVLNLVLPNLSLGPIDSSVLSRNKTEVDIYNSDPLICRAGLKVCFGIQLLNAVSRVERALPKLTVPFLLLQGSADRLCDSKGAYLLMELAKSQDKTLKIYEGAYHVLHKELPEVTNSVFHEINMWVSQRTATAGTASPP
Type: biochemical
Experimental: Compounds were profiled for MAGL inhibitory activity by measuring the enzymatic activity of MAGL by following the hydrolysis of 4-nitorphenylacetate resulting in 4-nitrophenol, which absorbs at 405-412 nm (G. G. Muccioli, G. Labar, D M. Lambert, Chem. Bio. Chem. 2008, 9, 2704-2710). This assay is hereinafter abbreviated “4-NPA assay”.
The 4-NPA assay was carried out in 384 well assay plates (black with clear bottom, non-binding surface treated, Corning Ref. 3655) in a total volume of 40 μL. Compound dilutions were made in 100% DMSO (VWR Chemicals 23500.297) in a polypropylene plate in 3-fold dilution steps to give a final concentration range in the assay from 25 μM to 1.7 nM. 1 μL compound dilutions (100% DMSO) were added to 19 μL MAGL (recombinant wild-type) in assay buffer (50 mM TRIS (GIBCO, 15567-027), 1 mM EDTA (Fluka, 03690-100 ml)). The plate was shaked for 1 min at 2000 rpm (Variomag Teleshake) and then incubated for 15 min at RT. To start the reaction, 20 μL 4-Nitrophenlyacetate (Sigma N-8130) in assay buffer with 6% EtOH was added. The final concentrations in the assay were 1 nM MAGL and 300 μM 4-Nitrophenylacetate. After shaking (1 min, 2000 rpm) and 5 min incubation at RT, the absorbance at 405 nm was measured for a first time (Molecular Devices, SpectraMax Paradigm). A second measurement was then done after incubation for 80 min at RT. From the two measurements, the slope was calculated by substracting the first from the second measurement.

Row | Compound | IC50
1 | COc1ccc([C@H](c2ccccc2)C2CCN(C(=O)c3ccc4c(c3)NC(=O)CO4)CC2)cc1OC (single isomer, unassigned) [Example 8] | 4 nM
2 | O=C1COc2ccc(C(=O)N3CCC(C(c4ccc(F)cc4)c4cccc(OCCOCCF)c4)CC3)cc2N1 (single isomer, unassigned) [Example 94, 6-[4-[(S or R)-[3-[2-(2-Fluoroethoxy)ethoxy]phenyl]-(4-fluorophenyl)methyl]piperidine-1-carbonyl]-4H-1,4-benzoxazin-3-one] | 0.4 nM
3 | O=C1COc2ccc(C(=O)N3CCC([C@@H](c4ccc(F)cc4)c4cccc(OCCOCCF)c4)CC3)cc2N1 (single isomer, unassigned) [Example 95, 6-[4-[(R or S)-[3-[2-(2-fluoroethoxy)ethoxy]phenyl]-(4-fluorophenyl)methyl]piperidine-1-carbonyl]-4H-1,4-benzoxazin-3-one] | 1.4 nM
4 | O=C1COc2ccc(C(=O)N3CCC(C(c4ccccc4)c4ccc(OCCOCCF)cc4)CC3)cc2N1 (single isomer, unassigned) [Example 96, 6-[4-[(S or R)-[4-[2-(2-Fluoroethoxy)ethoxy]phenyl]-phenyl-methyl]piperidine-1-carbonyl]-4H-1,4-benzoxazin-3-one] | 0.2 nM
5 | O=C1COc2ccc(C(=O)N3CCC(C(c4ccccc4)c4ccc(OCCOCCF)cc4)CC3)cc2N1 (single isomer, unassigned) [Example 97, 6-[4-[(R or S)-[4-[2-(2-Fluoroethoxy)ethoxy]phenyl]-phenyl-methyl]piperidine-1-carbonyl]-4H-1,4-benzoxazin-3-one] | 7.4 nM
6 | COc1ccc(C(c2ccc(F)cc2)C2CCN(C(=O)c3ccc4c(c3)NC(=O)CO4)CC2)cc1OC (single isomer, unassigned) [Example 104, 6-[4-[(S or R)-(3,4-Dimethoxyphenyl)-(4-fluorophenyl)methyl]piperidine-1-carbonyl]-4H-1,4-benzoxazin-3-one] | 0.3 nM
7 | COc1ccc(C(c2ccc(F)cc2)C2CCN(C(=O)c3ccc4c(c3)NC(=O)CO4)CC2)cc1OC (single isomer, unassigned) [Example 105, 6-[4-[(R or S)-(3,4-Dimethoxyphenyl)-(4-fluorophenyl)methyl]piperidine-1-carbonyl]-4H-1,4-benzoxazin-3-one] | 0.8 nM
8 | O=C1COc2ccc(C(=O)N3CCC(C(c4ccc(F)cc4)c4ccc(OCCOCCF)cc4)CC3)cc2N1 (single isomer, unassigned) [Example 107, 6-[4-[(R or S)-[4-[2-(2-Fluoroethoxy)ethoxy]phenyl]-(4-fluorophenyl)methyl]piperidine-1-carbonyl]-4H-1,4-benzoxazin-3-one] | 0.2 nM
9 | O=C1COc2ccc(C(=O)N3CCC(C(c4ccc(F)cc4)c4ccc(OCCOCCF)cc4)CC3)cc2N1 (single isomer, unassigned) [Example 108, 6-[4-[(S or R)-[4-[2-(2-Fluoroethoxy)ethoxy]phenyl]-(4-fluorophenyl)methyl]piperidine-1-carbonyl]-4H-1,4-benzoxazin-3-one] | 9.6 nM
10 | O=C1COc2ccc(C(=O)N3CCC(C(c4ccc(F)cc4)c4ccnc(F)c4)CC3)cc2N1 (single isomer, unassigned) [Example 110, 6-[4-[(S or R)-(4-Fluorophenyl)-(2-fluoro-4-pyridyl)methyl]piperidine-1-carbonyl]-4H-1,4-benzoxazin-3-one] | 6.2 nM
11 | O=C1COc2ccc(C(=O)N3CCC(C(c4ccc(F)cc4)c4ccnc(F)c4)CC3)cc2N1 (single isomer, unassigned) [Example 111, 6-[4-[(R or S)-(4-Fluorophenyl)-(2-fluoro-4-pyridyl)methyl]piperidine-1-carbonyl]-4H-1,4-benzoxazin-3-one] | 1.5 nM
12 | Cc1ccc(C(c2ccc(F)cc2)C2CCN(C(=O)c3ccc4c(c3)NC(=O)CO4)CC2)cc1 (single isomer, unassigned) [Example 112, 6-[4-[(S or R)-(4-Fluorophenyl)-(p-tolyl)methyl]piperidine-1-carbonyl]-4H-1,4-benzoxazin-3-one] | 0.3 nM
13 | Cc1ccc(C(c2ccc(F)cc2)C2CCN(C(=O)c3ccc4c(c3)NC(=O)CO4)CC2)cc1 (single isomer, unassigned) [Example 113, 6-[4-[(R or S)-(4-Fluorophenyl)-(p-tolyl)methyl]piperidine-1-carbonyl]-4H-1,4-benzoxazin-3-one] | 0.4 nM
14 | COc1ccc(C(c2ccccn2)C2CCN(C(=O)c3ccc4c(c3)NC(=O)CO4)CC2)cc1OC (single isomer, unassigned) [Example 116, 6-[4-[(R or S)-(3,4-Dimethoxyphenyl)-(2-pyridyl)methyl]piperidine-1-carbonyl]-4H-1,4-benzoxazin-3-one] | 55.4 nM

Further lines, results first:

Row | IC50 | Compound
15 | 0.9 nM | O=C1COc2ccc(C(=O)N3CCC([C@@H](c4ccccc4)c4ccc(F)cc4)CC3)cc2N1 (single isomer, unassigned) [Example 6]
16 | 0.9 nM | O=C1COc2ccc(C(=O)N3CCC([C@H](c4ccccc4)c4ccc(F)cc4)CC3)cc2N1 (single isomer, unassigned) [Example 7]
17 | 0.3 nM | COc1ccc([C@@H](c2ccccc2)C2CCN(C(=O)c3ccc4c(c3)NC(=O)CO4)CC2)cc1OC (single isomer, unassigned) [Example 9]
18 | 1.9 nM | COc1ccc([C@H](c2ccccc2)C2CCN(C(=O)c3ccc4c(c3)NC(=O)CO4)CC2)cc1 (single isomer, unassigned) [Example 10]
19 | 0.6 nM | COc1ccc([C@@H](c2ccccc2)C2CCN(C(=O)c3ccc4c(c3)NC(=O)CO4)CC2)cc1 (single isomer, unassigned) [Example 11]
20 | 0.4 nM | COc1cccc([C@H](c2ccccc2)C2CCN(C(=O)c3ccc4c(c3)NC(=O)CO4)CC2)c1 (single isomer, unassigned) [Example 12]
21 | 0.5 nM | COc1cccc([C@@H](c2ccccc2)C2CCN(C(=O)c3ccc4c(c3)NC(=O)CO4)CC2)c1 (single isomer, unassigned) [Example 13]
22 | 0.5 nM | Cc1ccc([C@H](c2ccccc2)C2CCN(C(=O)c3ccc4c(c3)NC(=O)CO4)CC2)cc1 (single isomer, unassigned) [Example 14]
23 | 1.1 nM | Cc1ccc([C@@H](c2ccccc2)C2CCN(C(=O)c3ccc4c(c3)NC(=O)CO4)CC2)cc1 (single isomer, unassigned) [Example 15]
24 | 0.5 nM | Cc1cccc([C@H](c2ccccc2)C2CCN(C(=O)c3ccc4c(c3)NC(=O)CO4)CC2)c1 (single isomer, unassigned) [Example 16]
25 | 0.2 nM | Cc1cccc([C@@H](c2ccccc2)C2CCN(C(=O)c3ccc4c(c3)NC(=O)CO4)CC2)c1 (single isomer, unassigned) [Example 17]
26 | 1.8 nM | O=C1COc2ccc(C(=O)N3CCC(C(c4ccccc4)c4cccc(F)n4)CC3)cc2N1 (single isomer, unassigned) [Example 98, 6-[4-[(S or R)-(6-Fluoro-2-pyridyl)-phenyl-methyl]piperidine-1-carbonyl]-4H-1,4-benzoxazin-3-one]
27 | 2.6 nM | O=C1COc2ccc(C(=O)N3CCC(C(c4ccccc4)c4cccc(F)n4)CC3)cc2N1 (single isomer, unassigned) [Example 99, 6-[4-[(R or S)-(6-fluoro-2-pyridyl)-phenyl-methyl]piperidine-1-carbonyl]-4H-1,4-benzoxazin-3-one]
28 | 3.5 nM | O=C1COc2ccc(C(=O)N3CCC(C(c4ccccc4)c4ccc(F)nc4)CC3)cc2N1 (single isomer, unassigned) [Example 102, 6-[4-[(S or R)-(6-Fluoro-3-pyridyl)-phenyl-methyl]piperidine-1-carbonyl]-4H-1,4-benzoxazin-3-one]
29 | 2.2 nM | O=C1COc2ccc(C(=O)N3CCC(C(c4ccccc4)c4ccc(F)nc4)CC3)cc2N1 (single isomer, unassigned) [Example 103, 6-[4-[(R or S)-(6-Fluoro-3-pyridyl)-phenyl-methyl]piperidine-1-carbonyl]-4H-1,4-benzoxazin-3-one]
30 | 4 nM | O=C1COc2ccc(C(=O)N3CCC(C(c4ccc(F)cc4)c4ccc(F)nc4)CC3)cc2N1 (single isomer, unassigned) [Example 114, 6-[4-[(S or R)-(4-Fluorophenyl)-(6-fluoro-3-pyridyl)methyl]piperidine-1-carbonyl]-4H-1,4-benzoxazin-3-one]
31 | 1.4 nM | O=C1COc2ccc(C(=O)N3CCC(C(c4ccc(F)cc4)c4ccc(F)nc4)CC3)cc2N1 (single isomer, unassigned) [Example 115, 6-[4-[(R or S)-(4-Fluorophenyl)-(6-fluoro-3-pyridyl)methyl]piperidine-1-carbonyl]-4H-1,4-benzoxazin-3-one]

Source: patent US11420961B2, “Heterocyclic compounds” (Hoffmann-La Roche Inc., priority 2017, dated 2022)
